Measurements taken from patent US9102670B2, “Pyrido-, pyrazo- and pyrimido-pyrimidine derivatives as mTOR inhibitors” (KuDOS Pharmaceuticals Limited, priority 2006, dated 2015).

test system: phosphorylation of Serine 473 in Akt; test: In Vitro Phospho-Ser473 Akt Assay in MDA-MB-468 cells; format: cell-based; conditions: Homo sapiens, MDA-MB-468, read-out: IC50 values against mTOR, phospho-Ser473 Akt assay, MDA-MB-468 cells

SMILES | IC50 [nM]
C[C@H]1COCCN1c1nc(N2CCOC[C@@H]2C)c2ccc(-c3ccc(F)c(CNCCO)c3)nc2n1 [Example 4ac] | < 100
C[C@H]1COCCN1c1nc(N2CCOC[C@@H]2C)c2ccc(-c3ccc(F)c(CN4CC[C@@H](O)C4)c3)nc2n1 [Example 4ad] | < 300
C[C@H]1COCCN1c1nc(N2CCOC[C@@H]2C)c2ccc(-c3ccc(F)c(CN(C)C)c3)nc2n1 [Example 4af] | < 100
C[C@H]1COCCN1c1nc(N2CCOC[C@@H]2C)c2ccc(-c3ccc(F)c(CN4CCC[C@@H](O)C4)c3)nc2n1 [Example 4ah] | < 300
CC(C)N(C)Cc1cc(-c2ccc3c(N4CCOC[C@@H]4C)nc(N4CCOC[C@@H]4C)nc3n2)ccc1F [Example 4ai] | < 100
C[C@H]1COCCN1c1nc(N2CCOC[C@@H]2C)c2ccc(-c3ccc(F)c(CN4CC[C@H](O)C4)c3)nc2n1 [Example 4ak] | < 100
COc1ccc(-c2ccc3c(N4CCOC[C@@H]4C)nc(N4CCOC[C@@H]4C)nc3n2)cc1CNC(C)C [Example 4am] | < 100
COc1ccc(-c2ccc3c(N4CCOC[C@@H]4C)nc(N4CCOC[C@@H]4C)nc3n2)cc1CNC1CCCC1 [Example 4an] | < 300
COc1ccc(-c2ccc3c(N4CCOC[C@@H]4C)nc(N4CCOC[C@@H]4C)nc3n2)cc1CNC1CCCCC1 [Example 4ao] | < 100
COc1ccc(-c2ccc3c(N4CCOC[C@@H]4C)nc(N4CCOC[C@@H]4C)nc3n2)cc1CNCc1cccs1 [Example 4ap] | < 300
COc1ccc(-c2ccc3c(N4CCOC[C@@H]4C)nc(N4CCOC[C@@H]4C)nc3n2)cc1CNC1CCOCC1 [Example 4aq] | < 100
COc1ccc(-c2ccc3c(N4CCOC[C@@H]4C)nc(N4CCOC[C@@H]4C)nc3n2)cc1CNCCC(C)(C)C [Example 4as] | < 100
COc1ccc(-c2ccc3c(N4CCOC[C@@H]4C)nc(N4CCOC[C@@H]4C)nc3n2)cc1CNCCC(C)C [Example 4at] | < 100
COc1ccc(-c2ccc3c(N4CCOC[C@@H]4C)nc(N4CCOC[C@@H]4C)nc3n2)cc1CNC(C)CC(C)C (some centres unmarked) [Example 4au] | < 100
CCN(CC)CCCNCc1cc(-c2ccc3c(N4CCOC[C@@H]4C)nc(N4CCOC[C@@H]4C)nc3n2)ccc1OC [Example 4av] | < 300
COc1ccc(-c2ccc3c(N4CCOC[C@@H]4C)nc(N4CCOC[C@@H]4C)nc3n2)cc1CNC1CCCCC1C (some centres unmarked) [Example 4aw] | < 100
COc1ccc(-c2ccc3c(N4CCOC[C@@H]4C)nc(N4CCOC[C@@H]4C)nc3n2)cc1CNCC1CC1 [Example 4ax] | < 100
CCCCNCc1cc(-c2ccc3c(N4CCOC[C@@H]4C)nc(N4CCOC[C@@H]4C)nc3n2)ccc1OC [Example 4ay] | < 100
COc1ccc(-c2ccc3c(N4CCOC[C@@H]4C)nc(N4CCOC[C@@H]4C)nc3n2)cc1CNCC(C)C [Example 4az] | < 100
C[C@H]1COCCN1c1nc(N2CCOC[C@@H]2C)c2ccc(-c3ccc(CN)cc3)nc2n1 [Example 4b] | < 100
COc1ccc(-c2ccc3c(N4CCOC[C@@H]4C)nc(N4CCOC[C@@H]4C)nc3n2)cc1CNCCO [Example 4ba] | < 100
COCCNCc1cc(-c2ccc3c(N4CCOC[C@@H]4C)nc(N4CCOC[C@@H]4C)nc3n2)ccc1OC [Example 4bb] | < 100
COc1ccc(-c2ccc3c(N4CCOC[C@@H]4C)nc(N4CCOC[C@@H]4C)nc3n2)cc1CNC1CCC(C)CC1 (some centres unmarked) [Example 4bc] | < 100

SMILES | IC50 [nM]
COc1ccc(CCNCc2cc(-c3ccc4c(N5CCOC[C@@H]5C)nc(N5CCOC[C@@H]5C)nc4n3)ccc2OC)cc1 [Example 4bd] | < 100
COc1ccc(-c2ccc3c(N4CCOC[C@@H]4C)nc(N4CCOC[C@@H]4C)nc3n2)cc1CNCCc1cnc[nH]1 [Example 4be] | < 100
COc1ccc(-c2ccc3c(N4CCOC[C@@H]4C)nc(N4CCOC[C@@H]4C)nc3n2)cc1CNC1CCCCCCC1 [Example 4bf] | < 100
C[C@H]1COCCN1c1nc(N2CCOC[C@@H]2C)c2ccc(-c3ccc(CN4CC[C@@H](O)C4)cc3)nc2n1 [Example 4c] | < 100
C[C@H]1COCCN1c1nc(N2CCOC[C@@H]2C)c2ccc(-c3ccc(CN4CC[C@H](O)C4)cc3)nc2n1 [Example 4d] | < 100
C[C@H]1COCCN1c1nc(N2CCOC[C@@H]2C)c2ccc(-c3ccc(CNC4CCOCC4)cc3)nc2n1 [Example 4e] | < 100
CCOCc1cccc(-c2ccc3c(N4CCOC[C@@H]4C)nc(N4CCOC[C@@H]4C)nc3n2)c1 [Example 4g] | < 300
C[C@H]1COCCN1c1nc(N2CCOC[C@@H]2C)c2ccc(-c3cccc(CNCCO)c3)nc2n1 [Example 4h] | < 100
C[C@H]1COCCN1c1nc(N2CCOC[C@@H]2C)c2ccc(-c3cccc(CN)c3)nc2n1 [Example 4i] | < 100
C[C@H]1COCCN1c1nc(N2CCOC[C@@H]2C)c2ccc(-c3cccc(CNC4CC4)c3)nc2n1 [Example 4j] | < 100
CC(C)NCc1cccc(-c2ccc3c(N4CCOC[C@@H]4C)nc(N4CCOC[C@@H]4C)nc3n2)c1 [Example 4k] | < 100
CNCc1cccc(-c2ccc3c(N4CCOC[C@@H]4C)nc(N4CCOC[C@@H]4C)nc3n2)c1 [Example 4l] | < 100
C[C@H]1COCCN1c1nc(N2CCOC[C@@H]2C)c2ccc(-c3cccc(CNC4CCOCC4)c3)nc2n1 [Example 4m] | < 100
C[C@H]1COCCN1c1nc(N2CCOC[C@@H]2C)c2ccc(-c3cccc(CNCC4CC4)c3)nc2n1 [Example 4n] | < 100
COCCNCc1cccc(-c2ccc3c(N4CCOC[C@@H]4C)nc(N4CCOC[C@@H]4C)nc3n2)c1 [Example 4o] | < 100
C[C@H]1COCCN1c1nc(N2CCOC[C@@H]2C)c2ccc(-c3cccc(CNc4cc[nH]n4)c3)nc2n1 [Example 4p] | < 300
C[C@H]1COCCN1c1nc(N2CCOC[C@@H]2C)c2ccc(-c3cccc(Cn4ccnc4)c3)nc2n1 [Example 4q] | < 300
C[C@H]1COCCN1c1nc(N2CCOC[C@@H]2C)c2ccc(-c3cccc(CN4CC[C@@H](O)C4)c3)nc2n1 [Example 4r] | < 100
C[C@H]1COCCN1c1nc(N2CCOC[C@@H]2C)c2ccc(-c3cccc(CN4CC[C@H](O)C4)c3)nc2n1 [Example 4s] | < 100
C[C@H]1COCCN1c1nc(N2CCOC[C@@H]2C)c2ccc(-c3ccc(F)c(CN)c3)nc2n1 [Example 4u] | < 100
CC(C)NCc1cc(-c2ccc3c(N4CCOC[C@@H]4C)nc(N4CCOC[C@@H]4C)nc3n2)ccc1F [Example 4w] | < 100
CNCc1cc(-c2ccc3c(N4CCOC[C@@H]4C)nc(N4CCOC[C@@H]4C)nc3n2)ccc1F [Example 4x] | < 100
C[C@H]1COCCN1c1nc(N2CCOC[C@@H]2C)c2ccc(-c3ccc(F)c(CNC4CCOCC4)c3)nc2n1 [Example 4y] | < 100

same assay, conditions: Homo sapiens, MDA-MB-468, read-out: IC50 values against mTOR, phospho-Ser473 Akt assay, MDA-MB-468 cells, upper bound

SMILES | IC50 [nM]
C[C@H]1COCCN1c1nc(N2CCOC[C@@H]2C)c2ccc(-c3ccc(F)c(CNCCF)c3)nc2n1 [Example 4ab] | < 1000
COCCN(C)Cc1cc(-c2ccc3c(N4CCOC[C@@H]4C)nc(N4CCOC[C@@H]4C)nc3n2)ccc1F [Example 4aj] | < 1000
C[C@H]1COCCN1c1nc(N2CCOC[C@@H]2C)c2ccc(-c3cccc(CS(C)(=O)=O)c3)nc2n1 [Example 4t] | < 1000
C[C@H]1COCCN1c1nc(N2CCOC[C@@H]2C)c2ccc(-c3ccc(F)c(CNC4CC4)c3)nc2n1 [Example 4v] | < 1000
